Like-named read-outs stand apart in the source and are kept apart here.
Legend:
[1] = Parallel artificial membrane permeability assay; settings: 4% lipid bilayer; 16-hours incubation at room temperature
UTB = molecular target: T1, UTB (Homo sapiens, UniProt Q13336); assay: Transcellular transport assay in LLC-PK1 cells overexpressing UTB; format: cell-based; settings: 1mM dimethylurea
T1 sequence (Q13336 1-389): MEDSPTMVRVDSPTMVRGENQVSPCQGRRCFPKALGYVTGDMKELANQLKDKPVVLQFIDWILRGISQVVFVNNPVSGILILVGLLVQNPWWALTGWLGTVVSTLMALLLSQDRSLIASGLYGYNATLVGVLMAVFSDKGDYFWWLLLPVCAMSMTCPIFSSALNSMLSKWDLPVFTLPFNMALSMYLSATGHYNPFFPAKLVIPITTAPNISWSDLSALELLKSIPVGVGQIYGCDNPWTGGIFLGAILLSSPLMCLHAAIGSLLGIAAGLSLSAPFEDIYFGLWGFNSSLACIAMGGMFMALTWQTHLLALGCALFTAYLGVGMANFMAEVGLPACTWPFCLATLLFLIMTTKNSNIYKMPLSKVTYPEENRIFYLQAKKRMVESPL

hOATP1B3 = molecular target: T2, hOATP1B3 (Homo sapiens, UniProt Q9NPD5); assay: Inhibition of OATP1B3-mediated hydroxyurea accumulation in oocytes; format: cell-based; settings: for Hydroxyurea accumulation in OATP1B3 oocytes, % of accumulation without inhibitor: 1mM inhibitor co-incubation, in 1% DMSO
T2 sequence (Q9NPD5 1-702): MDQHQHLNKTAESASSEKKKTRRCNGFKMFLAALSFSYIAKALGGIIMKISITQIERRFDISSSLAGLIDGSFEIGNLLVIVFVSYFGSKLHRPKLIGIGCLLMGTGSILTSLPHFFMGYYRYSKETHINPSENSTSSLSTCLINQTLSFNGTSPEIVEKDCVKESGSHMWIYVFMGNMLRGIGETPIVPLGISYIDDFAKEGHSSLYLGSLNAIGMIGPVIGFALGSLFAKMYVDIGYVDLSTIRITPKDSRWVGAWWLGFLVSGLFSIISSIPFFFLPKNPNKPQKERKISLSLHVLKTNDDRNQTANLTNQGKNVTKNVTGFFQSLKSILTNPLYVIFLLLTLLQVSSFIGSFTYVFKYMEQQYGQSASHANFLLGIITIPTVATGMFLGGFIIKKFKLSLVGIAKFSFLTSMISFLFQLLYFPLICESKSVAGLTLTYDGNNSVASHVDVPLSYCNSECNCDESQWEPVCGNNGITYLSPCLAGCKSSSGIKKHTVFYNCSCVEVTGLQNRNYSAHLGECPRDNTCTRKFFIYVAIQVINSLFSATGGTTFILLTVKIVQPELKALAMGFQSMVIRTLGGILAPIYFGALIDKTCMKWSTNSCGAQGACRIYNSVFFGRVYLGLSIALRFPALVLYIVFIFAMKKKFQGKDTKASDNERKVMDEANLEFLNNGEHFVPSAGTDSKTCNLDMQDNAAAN

[2] = PAMPA
human OCTN1 = molecular target: T3, human OCTN1 (Homo sapiens, UniProt Q9H015); assay: Hydroxyurea uptake in HEK293 cells overexpressing hOCTN1; format: cell-based; settings: percentage of control cells (100%)
T3 sequence (Q9H015 1-551): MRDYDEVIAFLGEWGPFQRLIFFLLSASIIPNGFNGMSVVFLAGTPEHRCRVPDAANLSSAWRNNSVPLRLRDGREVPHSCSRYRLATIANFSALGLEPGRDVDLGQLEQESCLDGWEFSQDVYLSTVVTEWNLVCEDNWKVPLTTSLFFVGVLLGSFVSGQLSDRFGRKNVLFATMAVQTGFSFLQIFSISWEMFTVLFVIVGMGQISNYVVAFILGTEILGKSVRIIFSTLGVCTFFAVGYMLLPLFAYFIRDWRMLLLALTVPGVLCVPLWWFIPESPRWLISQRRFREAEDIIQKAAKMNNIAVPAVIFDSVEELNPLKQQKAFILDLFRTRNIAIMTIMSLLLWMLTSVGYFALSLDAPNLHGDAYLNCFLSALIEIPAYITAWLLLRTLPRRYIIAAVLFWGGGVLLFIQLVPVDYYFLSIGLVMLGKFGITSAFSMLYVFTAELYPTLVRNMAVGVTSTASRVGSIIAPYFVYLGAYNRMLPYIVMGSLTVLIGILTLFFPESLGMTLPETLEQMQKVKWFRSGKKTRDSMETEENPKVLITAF

human OCTN2 = molecular target: T4, human OCTN2 (Homo sapiens, UniProt O76082); assay: Hydroxyurea uptake in HEK293 cells overexpressing hOCTN2; format: cell-based; settings: percentage of control cells (100%)
T4 sequence (O76082 1-557): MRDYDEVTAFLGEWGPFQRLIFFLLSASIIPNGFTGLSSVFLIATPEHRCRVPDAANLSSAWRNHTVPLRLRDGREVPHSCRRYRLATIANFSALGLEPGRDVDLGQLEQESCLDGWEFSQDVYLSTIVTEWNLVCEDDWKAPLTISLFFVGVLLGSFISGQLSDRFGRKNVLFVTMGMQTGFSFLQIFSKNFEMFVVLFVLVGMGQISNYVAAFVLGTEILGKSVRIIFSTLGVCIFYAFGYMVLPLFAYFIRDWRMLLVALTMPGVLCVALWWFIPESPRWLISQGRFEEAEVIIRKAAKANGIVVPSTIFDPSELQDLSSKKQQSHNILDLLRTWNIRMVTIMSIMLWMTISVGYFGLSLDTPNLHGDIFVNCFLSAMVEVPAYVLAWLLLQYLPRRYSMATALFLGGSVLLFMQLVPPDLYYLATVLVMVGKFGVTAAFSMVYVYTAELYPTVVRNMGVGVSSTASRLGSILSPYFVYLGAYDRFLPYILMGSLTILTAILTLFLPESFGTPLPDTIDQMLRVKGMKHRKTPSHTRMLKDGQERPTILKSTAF

[3] = humans, oral; cited from earlier work

Molecule: Cc1ncc2n1-c1ccc(Cl)cc1C(c1ccccc1F)=NC2 [midazolam]
- 10 + logPe [1]: 4.707

Molecule: dimethylurea
- effect on hydroxyurea transport (UTB): marginally inhibited

Molecule: C[C@@H]1O[C@@H](O[C@H]2[C@H](Oc3cc(O)c4c(c3)O[C@H](c3ccc(O)cc3)CC4=O)O[C@H](CO)[C@@H](O)[C@@H]2O)[C@H](O)[C@H](O)[C@H]1O [naringin]
- Hydroxyurea accumulation in OATP1B3 oocytes, % of accumulation without inhibitor (hOATP1B3): 30%

Molecule: CN(Cc1cnc2nc(N)nc(N)c2n1)c1ccc(C(=O)N[C@@H](CCC(=O)O)C(=O)O)cc1 [methotrexate]
- lowering of hydroxyurea accumulation in OATP1B3 oocytes (hOATP1B3; 1mM co-incubation in the absence of DMSO): 50%
- 10 + logPe ([2]; 16 h): 2.022

Molecule: CO[C@H]1/C=C/O[C@@]2(C)Oc3c(C)c(O)c4c(O)c(c(/C=N/N5CCN(C)CC5)c(O)c4c3C2=O)NC(=O)/C(C)=C\C=C\[C@H](C)[C@H](O)[C@@H](C)[C@@H](O)[C@@H](C)[C@H](OC(C)=O)[C@@H]1C [rifampin]
- Hydroxyurea accumulation in OATP1B3 oocytes, % of accumulation without inhibitor (hOATP1B3): 30%

Molecule: NC(=O)NO [hydroxyurea]
- hydroxyurea uptake compared to controls (human OCTN1): 130%
- hydroxyurea uptake compared to controls (human OCTN2): 113%
- 10 + logPe [2]: 2.597
- estimated permeability rate (log Pe + 10) [2]: 2.385
- Tmax [3]: 1.22 h
- bioavailability [3]: nearly complete

Molecule: NC(N)=O [urea]
- 10 + logPe [2]: 2.712
- estimated permeability rate (log Pe + 10) [2]: 2.335

From publication PMC4739778 (Experimental hematology, 2011)
